Reference: patent US20180289689A1, “USE OF CCR5 ANTAGONISTS ALONE OR IN COMBINATION THERAPY FOR THE TREATMENT OF CANCER” (RUPRECHT-KARLS-UNIVERSITÄT HEIDELBERG, priority 2014, published 2018)

Tests used:
[1] = test system: colorectal cancer patients with hepatic metastases; assay: MARACON-001 phase I trial, Maraviroc monotherapy; assay type: in vivo, human; details: for Objective response (RECIST)/ other responses: Patient 4, colorectal cancer (metastatic: lung and liver), monotherapy
Text: Clinical trial. A trial in colorectal cancer patients with hepatic metastases was initiated. […] In the trial, patients receive Maraviroc daily for two months. Safety and feasibility are the primary endpoints of this ongoing trial. The trial is being conducted according to the Declaration of Helsinki and relevant International Conference on Harmonization Good Clinical Practice guidelines and with approval from the ethics committee of the University of Heidelberg. […] All provided written informed consent before participating in this study. The overall workflow of the trial is depicted in FIG. 2.
Assessment of proliferation in histology samples. Briefly cryo sections were fixed with 4% paraformaldehyde (PFA, Sigma Aldrich, Germany). The sections were blocked with 10% normal goat serum (Vector, USA). […] The slides were incubated with a secondary antibody (rabbit-anti-mouse IgG, Bond Polymer Refine Detection System, Leica, Germany) for 8 minutes at room temperature. Further amplification of the signal was achieved through incubation with a third antibody, conjugated with horse radish peroxidase and coupled to dextrane molecules in large numbers, for 8 minutes at room temperature (Poly-HRP-mouse-anti-rabbit IgG, Bond Polymer Refine Detection System, Leica, Germany). The antigen detection was performed by a color reaction with 3,3-di-amino-benzidine (DAB chromogen, Bond Polymer Refine Detection System, Leica, Germany). The sections were counterstained with hematoxylin (Bond Polymer Refine Detection System, Leica, Germany) and mounted with Aquatex (Merck, Germany). Assessment was performed with the Visiomorph Software Package (Visiopharm, Denmark) to quantify positive tumor cells.

[2] = test system: colorectal cancer liver metastases; assay: Tumor explant model from freshly resected colorectal cancer liver metastases; assay type: cell-based, human; details: FIG. 1
Text: Tumor explant models. Tumor explant models were generated from freshly resected colorectal cancer liver metastases. Explanted tissue specimens were cut into three equal parts, placed in unconditioned medium and either treated with DMSO or Maraviroc (in DMSO) or without any addition. The explants were then harvested and subjected to histological analyses (see FIG. 1) and multiplex protein analysis (see FIG. 3).

Cc1nnc(C(C)C)n1[C@@H]1C[C@H]2CC[C@@H](C1)N2CC[C@H](NC(=O)C1CCC(F)(F)CC1)c1ccccc1 [Maraviroc, 4,4-difluoro-N-{(1S)-3-[3-(3-isopropyl-5-methyl-4H-1,2,4-triazol-4-yl)-8-azabicyclo[3.2.1]oct-8-yl]-1-phenylpropyl}cyclohexanecarboxamide]
tumor cell death in patients (biopsies) ([1]; Maraviroc 300 mg/bid, second biopsy after 8-10 days): tumor cell death | Objective response (RECIST)/ other responses ([1]; liver): −10% (liver) | Objective response (RECIST)/ other responses ([1]; lung): −50% (lung), | radiologically measured area of necrosis of liver metastases ([1]; before vs after therapy, percentage of necrotic area of reference lesion, FIG. 5): increase in necrotic area | proliferation activity (Ki67 percentage) of tumor cells ([1]; before vs under treatment (8-10 days, second biopsy), FIG. 4): Reductions | key cytokines for tumor growth, chemotherapy resistance or angiogenesis ([1]; day 0 (pretreatment) vs day 9 of treatment, FIG. 3): Marked Changes | tolerability ([1]; patients): well-tolerated | side effects ([1]; patients, so far): does not have significant side effects | tumor cell death upon inhibition of CCR5 ([2]; explants treated with Maraviroc (in DMSO)): clear tumor cell death | effects in the adjacent liver ([2]; explants treated with Maraviroc): no effects | histology of treated section (hemalaun counterstaining) ([2]; treated section vs untreated control section): Large areas of necrosis and only few remaining tumor cells
